# In PubChem BioAssay (NCI):
#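 Results reflect a 48-hour exposure of cells in 96-well plates to compound at five concentrations. TGI is the concentration that stops growth completely.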
# Assays:
# Assay in all cases: NCI-60 cell line screen, 48 h
# 786-0 renal = test system: 786-0 renal
# A498 renal = test system: A498 renal
# A549 NSCLC = test system: A549 NSCLC
# ACHN renal = test system: ACHN renal
# BT-549 breast = test system: BT-549 breast
# CAKI-1 renal = test system: CAKI-1 renal
# CCRF-CEM leukemia = test system: CCRF-CEM leukemia
# COLO 205 colon = test system: COLO 205 colon
# DU-145 prostate = test system: DU-145 prostate
# EKVX NSCLC = test system: EKVX NSCLC
# HCC-2998 colon = test system: HCC-2998 colon
# HCT-116 colon = test system: HCT-116 colon
# HCT-15 colon = test system: HCT-15 colon
# HL-60(TB) leukemia = test system: HL-60(TB) leukemia
# HOP-62 NSCLC = test system: HOP-62 NSCLC
# HOP-92 NSCLC = test system: HOP-92 NSCLC
# HS 578T breast = test system: HS 578T breast
# HT29 colon = test system: HT29 colon
# IGROV1 ovarian = test system: IGROV1 ovarian
# K-562 leukemia = test system: K-562 leukemia
# KM12 colon = test system: KM12 colon
# LOX IMVI melanoma = test system: LOX IMVI melanoma
# M14 melanoma = test system: M14 melanoma
# MALME-3M melanoma = test system: MALME-3M melanoma
# MDA-MB-231 breast = test system: MDA-MB-231 breast
# MDA-MB-435 = test system: MDA-MB-435
# MDA-N = test system: MDA-N
# MOLT-4 leukemia = test system: MOLT-4 leukemia
# NCI-H226 lung = test system: NCI-H226 lung
# NCI-H23 lung = test system: NCI-H23 lung
# NCI-H460 lung = test system: NCI-H460 lung
# NCI-H522 lung = test system: NCI-H522 lung
# NCI/ADR-RES ovarian = test system: NCI/ADR-RES ovarian
# OVCAR-5 ovarian = test system: OVCAR-5 ovarian
# OVCAR-8 ovarian = test system: OVCAR-8 ovarian
# PC-3 prostate = test system: PC-3 prostate
# RPMI-8226 leukemia = test system: RPMI-8226 leukemia
# SF-268 CNS = test system: SF-268 CNS
# SF-295 CNS = test system: SF-295 CNS
# SF-539 CNS = test system: SF-539 CNS
# SK-MEL-2 melanoma = test system: SK-MEL-2 melanoma
# SK-MEL-28 melanoma = test system: SK-MEL-28 melanoma
# SK-MEL-5 melanoma = test system: SK-MEL-5 melanoma
# SK-OV-3 ovarian = test system: SK-OV-3 ovarian
# SN12C renal = test system: SN12C renal
# SNB-19 CNS = test system: SNB-19 CNS
# SNB-75 CNS = test system: SNB-75 CNS
# SR leukemia = test system: SR leukemia
# SW-620 colon = test system: SW-620 colon
# T-47D breast = test system: T-47D breast
# TK-10 renal = test system: TK-10 renal
# U251 CNS = test system: U251 CNS
# UACC-257 melanoma = test system: UACC-257 melanoma
# UACC-62 melanoma = test system: UACC-62 melanoma
# UO-31 renal = test system: UO-31 renal
# MCF7 breast = test system: MCF7 breast
# OVCAR-3 ovarian = test system: OVCAR-3 ovarian
# RXF 393 renal = test system: RXF 393 renal
smiles,measurement,setting,value
C=C1CC(Cn2cc(C)c(=O)[nH]c2=O)(c2ccc(Cl)cc2)OC1=O (centres undefined),TGI,786-0 renal,2.99 µM
same,TGI,A498 renal,22.8 µM
same,TGI,A549 NSCLC,32.2 µM
same,TGI,ACHN renal,8 µM
same,TGI,BT-549 breast,2.86 µM
same,TGI,CAKI-1 renal,3.93 µM
same,TGI,CCRF-CEM leukemia,4.01 µM
same,TGI,COLO 205 colon,2.96 µM
same,TGI,DU-145 prostate,18.3 µM
same,TGI,EKVX NSCLC,18.7 µM
same,TGI,HCC-2998 colon,8.43 µM
same,TGI,HCT-116 colon,3.29 µM
same,TGI,HCT-15 colon,2.37 µM
same,TGI,HL-60(TB) leukemia,3.93 µM
same,TGI,HOP-62 NSCLC,33 µM
same,TGI,HOP-92 NSCLC,1.58 µM
same,TGI,HS 578T breast,25.5 µM
same,TGI,HT29 colon,3.64 µM
same,TGI,IGROV1 ovarian,3.41 µM
same,TGI,K-562 leukemia,21.1 µM
same,TGI,KM12 colon,> 43 µM
same,TGI,LOX IMVI melanoma,3.2 µM
same,TGI,M14 melanoma,2.54 µM
same,TGI,MALME-3M melanoma,4.89 µM
same,TGI,MDA-MB-231 breast,9.82 µM
same,TGI,MDA-MB-435,15.1 µM
same,TGI,MDA-N,11.6 µM
same,TGI,MOLT-4 leukemia,3.87 µM
same,TGI,NCI-H226 lung,30.6 µM
same,TGI,NCI-H23 lung,10.4 µM
same,TGI,NCI-H460 lung,36.1 µM
same,TGI,NCI-H522 lung,1.35 µM
same,TGI,NCI/ADR-RES ovarian,17.9 µM
same,TGI,OVCAR-5 ovarian,29.4 µM
same,TGI,OVCAR-8 ovarian,15.4 µM
same,TGI,PC-3 prostate,12.5 µM
same,TGI,RPMI-8226 leukemia,1.95 µM
same,TGI,SF-268 CNS,42.1 µM
same,TGI,SF-295 CNS,> 34 µM
same,TGI,SF-539 CNS,26 µM
same,TGI,SK-MEL-2 melanoma,5.48 µM
same,TGI,SK-MEL-28 melanoma,4.44 µM
same,TGI,SK-MEL-5 melanoma,6.43 µM
same,TGI,SK-OV-3 ovarian,28.1 µM
same,TGI,SN12C renal,21.2 µM
same,TGI,SNB-19 CNS,> 55.5 µM
same,TGI,SNB-75 CNS,15.4 µM
same,TGI,SR leukemia,8.97 µM
same,TGI,SW-620 colon,3.38 µM
same,TGI,T-47D breast,5.19 µM
same,TGI,TK-10 renal,3.61 µM
same,TGI,U251 CNS,30 µM
same,TGI,UACC-257 melanoma,3.75 µM
same,TGI,UACC-62 melanoma,7.48 µM
same,TGI,UO-31 renal,25.9 µM
Cn1c(N)c(Cc2ccc(Cl)cc2)c(=O)[nH]c1=O,TGI,786-0 renal,> 100 µM
same,TGI,A498 renal,> 100 µM
same,TGI,A549 NSCLC,> 100 µM
same,TGI,ACHN renal,> 100 µM
same,TGI,BT-549 breast,> 100 µM
same,TGI,CAKI-1 renal,> 100 µM
same,TGI,CCRF-CEM leukemia,> 100 µM
same,TGI,COLO 205 colon,> 100 µM
same,TGI,DU-145 prostate,> 100 µM
same,TGI,EKVX NSCLC,> 100 µM
same,TGI,HCT-116 colon,> 100 µM
same,TGI,HCT-15 colon,> 100 µM
same,TGI,HL-60(TB) leukemia,> 100 µM
same,TGI,HOP-62 NSCLC,> 100 µM
same,TGI,HOP-92 NSCLC,> 100 µM
same,TGI,HS 578T breast,> 100 µM
same,TGI,HT29 colon,> 100 µM
same,TGI,IGROV1 ovarian,> 100 µM
same,TGI,K-562 leukemia,> 100 µM
same,TGI,KM12 colon,> 100 µM
same,TGI,LOX IMVI melanoma,> 100 µM
same,TGI,M14 melanoma,> 100 µM
same,TGI,MALME-3M melanoma,> 100 µM
same,TGI,MCF7 breast,> 100 µM
same,TGI,MDA-MB-231 breast,> 100 µM
same,TGI,MDA-MB-435,> 100 µM
same,TGI,MDA-N,> 100 µM
same,TGI,MOLT-4 leukemia,> 100 µM
same,TGI,NCI-H226 lung,> 100 µM
same,TGI,NCI-H23 lung,> 100 µM
same,TGI,NCI-H522 lung,> 100 µM
same,TGI,NCI/ADR-RES ovarian,> 100 µM
same,TGI,OVCAR-3 ovarian,> 100 µM
same,TGI,OVCAR-5 ovarian,> 100 µM
same,TGI,OVCAR-8 ovarian,> 100 µM
same,TGI,RPMI-8226 leukemia,> 100 µM
same,TGI,RXF 393 renal,> 100 µM
same,TGI,SF-268 CNS,> 100 µM
same,TGI,SF-295 CNS,> 100 µM
same,TGI,SF-539 CNS,> 100 µM
same,TGI,SK-MEL-2 melanoma,> 100 µM
same,TGI,SK-MEL-28 melanoma,> 100 µM
same,TGI,SK-MEL-5 melanoma,> 100 µM
same,TGI,SK-OV-3 ovarian,> 100 µM
same,TGI,SN12C renal,> 100 µM
same,TGI,SNB-19 CNS,> 100 µM
same,TGI,SNB-75 CNS,> 100 µM
same,TGI,SR leukemia,> 100 µM
same,TGI,SW-620 colon,> 100 µM
same,TGI,T-47D breast,> 100 µM
same,TGI,TK-10 renal,> 100 µM
same,TGI,UACC-257 melanoma,> 100 µM
same,TGI,UACC-62 melanoma,> 100 µM
same,TGI,UO-31 renal,> 100 µM
